# According to US20140171465A1, “Methods For Increasing Reticulocyte Hemoglobin Content” (FibroGen, Inc., priority 2011, published 2014):
# Legend:
# Type in all cases: in vivo
# [1] = tested on: human subjects with stage 3 and stage 4 chronic kidney disease; assay: Reticulocyte hemoglobin content (CHr) in human subjects with stage 3 or stage 4 chronic kidney disease, 17 weeks
# Procedure: The effect of compound of the present invention on CHr was determined in human subjects with stage 3 and stage 4 chronic kidney disease patients (eGFR<60 ml/min) as follows. Subjects with stage 3 or stage 4 chronic kidney disease not receiving dialysis were administered Compound A at either approximately 1.2 mg/kg twice weekly or 70 mg fixed dose thrice weekly for a period of 17 weeks. Dose adjustments were permitted from week 5 onward to correct and maintain subjects to a target hemoglobin range; however, doses were not allowed to exceed 2.5 mg/kg per dose. CHr values were measured at week 9 and week 17.
# [2] = tested on: human subjects with end-stage renal disease; assay: Reticulocyte hemoglobin content (CHr) in human subjects with end-stage renal disease, 6 weeks TIW; conditions: for Mean Change (pg) from Baseline CHr at Day 43 (6 weeks) of Treatment: ESRD on hemodialysis, no IV iron
# Procedure: The effect of a compound of the present invention on CHr was determined in human subjects with end-stage renal disease as follows. In the current studies, subjects had been receiving stable maintenance hemodialysis for at least 4 months prior to the initiation of the present study. Additionally, subjects had been maintained on standard of care stable doses of epoetin alfa for the treatment of anemia prior to initiation of the present study.
# In order to examine differences in the CHr response in subjects treated with compound of the invention compared to the CHr response in subject treated with epoetin alpha (the current standard of care), all IV iron supplementation was halted two weeks prior to treatment initiation. Administration of oral iron was allowed.
# […] Baseline CHr levels were determined prior to treatment (mean of two screening period measurements with the Day 1 measurement). CHr levels were measured weekly throughout the six-week study period.
# In contrast, CHr decreased in subjects treated with epoetin alfa during the same time period.
# [3] = tested on: human subjects with end-stage renal disease; assay: Mean hemoglobin levels in human subjects with end-stage renal disease, 6 weeks TIW; conditions: six week treatment period; Compound A 1.5 mg/kg and 2.0 mg/kg TIW; epoetin alfa TIW
# [4] = tested on: human patients; assay: Safety and efficacy of tested doses in human patients; conditions: doses between 0.7 and 2.5 mg/kg administered TIW, BIW, or QW
# Description: In a particular embodiment, the present invention provides an efficacious therapeutic compound for treating a subject having reduced reticulocyte hemoglobin content. Specifically, the invention comprises the compound [(4-hydroxy-1-methyl-7-phenoxy-isoquinoline-3-carbonyl)-amino]-acetic acid for use in methods of increasing reticulocyte hemoglobin content (CHr) in a subject.
compound,measurement,setting,value
"Cc1nc(C(=O)NCC(=O)O)c(O)c2ccc(Oc3ccccc3)cc12 [Compound A, [(4-hydroxy-1-methyl-7-phenoxy-isoquinoline-3-carbonyl)-amino]-acetic acid]",maintenance of mean CHr (FIG. 3B),"[1]; 70 mg fixed dose TIW, weeks 9 to 17",maintenance of mean CHr from 9 to 17 weeks
same,"mean CHr over time (FIG. 3A, 3B)","[1]; approximately 1.2 mg/kg BIW or 70 mg TIW, 17 weeks, CKD stage 3/4 not on dialysis",mean CHr increased over time
same,Mean Change (pg) from Baseline CHr at Day 43 (6 weeks) of Treatment,"[2]; 1 mg/kg TIW, N = 10",+0.41 pg
same,mean increase in CHr over baseline after 6 weeks of treatment,[2]; 1.3 mg/kg TIW (N=5),0.85 pg/cell
same,Mean Change (pg) from Baseline CHr at Day 43 (6 weeks) of Treatment,"[2]; 1.5 mg/kg TIW, N = 9",+0.10 pg
same,mean increase in CHr over baseline after 6 weeks of treatment,[2]; 1.8 mg/kg TIW (N=5),0.82 pg/cell
same,Mean Change (pg) from Baseline CHr at Day 43 (6 weeks) of Treatment,"[2]; 2.0 mg/kg TIW, N = 9",+0.44 pg
same,change from baseline of the mean CHr over time (FIG. 1),"[2]; six week treatment period, Compound A 1.0, 1.5 and 2.0 mg/kg TIW, epoetin alfa TIW",increase in mean CHr over time
same,changes in mean hemoglobin levels (FIG. 2),[3],time-dependent increase in mean hemoglobin levels
same,safety and efficacy of tested doses,[4],"safe, useful, and effective"
